Among the data in paper PMC6503450, “Proteases Underground: Analysis of the Maize Root Apoplast Identifies Organ Specific Papain-Like Cysteine Protease Activity” (Frontiers in Plant Science, 2019) are IC50 values, retold here.

One assay concerns the target T1, CP1B (Zea mays, UniProt K7TP58).
T1 construct: gene LOC100283284
Description: fluorogenic substrate cleavage assay, apoplastic fluid of overexpressing N. benthamiana. The class given is cell-based.

For the next assay, the target named is T2, CP1C (Zea mays, UniProt B4FS90).
T2 sequence (B4FS90 150-389 limits assumed): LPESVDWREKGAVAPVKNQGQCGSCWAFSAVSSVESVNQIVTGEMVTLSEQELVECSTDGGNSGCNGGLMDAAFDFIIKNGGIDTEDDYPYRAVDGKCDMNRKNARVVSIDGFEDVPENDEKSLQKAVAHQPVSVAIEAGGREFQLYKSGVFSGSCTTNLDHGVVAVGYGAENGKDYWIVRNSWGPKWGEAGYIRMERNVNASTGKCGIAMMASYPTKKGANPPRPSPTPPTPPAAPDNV
The description is as above. The class given is cell-based. As to conditions: 10 uM Z-LR-AMC, pH 6, 0.5 mM DTT; covalent irreversible active-site inhibitor.

T1 sequence (K7TP58 135-372 limits assumed): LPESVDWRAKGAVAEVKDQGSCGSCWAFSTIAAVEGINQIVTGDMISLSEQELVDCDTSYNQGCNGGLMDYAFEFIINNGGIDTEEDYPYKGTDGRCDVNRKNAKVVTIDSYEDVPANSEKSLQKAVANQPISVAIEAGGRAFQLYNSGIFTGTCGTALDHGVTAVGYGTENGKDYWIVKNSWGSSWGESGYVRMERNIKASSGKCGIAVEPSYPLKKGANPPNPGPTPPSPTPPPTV

On to `CC(C)C[C@H](NC(=O)[C@H]1O[C@@H]1C(=O)O)C(=O)NCCCCN=C(N)N` [E-64], for which the values for the IC50 at CP1B and against CP1C were 10 ± 0.9 nM and 3.2 ± 0.2 nM, respectively.
